pIC50: −log10 of the molar value.
Target: T1, FXR ligand binding domain (Homo sapiens, UniProt Q96RI1)
T1 sequence (Q96RI1 1-486): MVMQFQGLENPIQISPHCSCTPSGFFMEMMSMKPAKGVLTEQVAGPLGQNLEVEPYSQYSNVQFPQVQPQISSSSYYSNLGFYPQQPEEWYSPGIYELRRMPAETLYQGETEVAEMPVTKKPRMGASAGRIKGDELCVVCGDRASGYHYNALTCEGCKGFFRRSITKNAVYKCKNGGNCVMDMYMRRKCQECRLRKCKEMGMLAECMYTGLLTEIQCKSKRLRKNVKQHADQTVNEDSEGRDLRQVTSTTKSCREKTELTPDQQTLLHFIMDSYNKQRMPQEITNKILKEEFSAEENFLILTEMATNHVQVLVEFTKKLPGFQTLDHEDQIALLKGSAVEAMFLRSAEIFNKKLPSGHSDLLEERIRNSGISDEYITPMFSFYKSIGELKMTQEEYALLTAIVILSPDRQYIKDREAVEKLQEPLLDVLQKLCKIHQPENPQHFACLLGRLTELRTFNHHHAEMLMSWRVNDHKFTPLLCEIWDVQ
Assay: Radioligand binding assay (radioligand displacement, scintillation proximity)
Settings: GST-FXR LBD fusion protein on SPA beads, radioligand 2,N-dicyclohexyl-2-[2-(2,4 dimethoxy-phenyl)-benzoimidazol-1-yl]-acetamide, RT 30 minutes
Protocol: The following tests were carried out in order to determine the activity of the compounds of formula I. Background information on the binding assay can be found in: Nichols J S et al. “Development of a scintillation proximity assay for peroxisome proliferator-activated receptor gamma ligand binding domain”, (1998) Anal. Biochem. 257: 112-119.
Bacterial and mammalian expression vectors were constructed to produce glutathione-s-transferase (GST) and Gal4 DNA binding domain (GAL) proteins fused to the ligand binding domain (LBD) of human FXR (aa 193-473). To accomplish this, the portions of the sequences encoding the FXR LBD were amplified by polymerase chain reaction (PCR) from a full-length clone by PCR and then subcloned into the plasmid vectors. The final clone was verified by DNA sequence analysis.
The induction, expression, and subsequent purification of GST-LBD fusion protein was performed in E. coli strain BL21(pLysS) cells by standard methods (Current Protocols in Molecular Biology, Wiley Press, ed. Ausubel et al).
Radioligand Binding Assay
Binding of test substances to the FXR ligand binding domain was assessed in a radioligand displacement assay. The assay was performed in a buffer consisting of 50 mM Hepes, pH 7.4, 10 mM NaCl, 5 mM MgCl2. For each reaction well in a 96-well plate, 40 nM of GST-FXR LBD fusion protein was bound to 10 μg glutathione ytrium silicate SPA beads (Pharmacia Amersham) in a final volume of 50 μl by shaking. A radioligand (eg. 40 nM) of 2,N-dicyclohexyl-2-[2-(2,4 dimethoxy-phenyl)-benzoimidazol-1-yl]-acetamide) was added, and the reaction incubated at RT for 30 minutes in the presence of test compounds followed by scintillation proximity counting. All binding assays were performed in 96-well plates and the amount of bound ligand was measured on a Packard TopCount using OptiPlates (Packard). Dose response curves were performed within a range of concentration from 6×10^−9 M to 2.5×10^−5 M.

| SMILES | pIC50 |
| --- | --- |
| O=C(O)c1ccc(NC(=O)C(c2c3c(nn2-c2ccc(Cl)cc2)CCCC3)C2CCCCC2)c(Cl)c1 (racemic) [Example 62, [rac]-3-Chloro-4-{2-[2-(4-chloro-phenyl)-4,5,6,7-tetrahydro-2H-indazol-3-yl]-2-cyclohexyl-acetylamino}-benzoic acid] | 7.10 |
| O=C(Nc1ccc(-c2nnn[nH]2)cc1)C(c1c2c(nn1-c1ccc(Cl)cc1)CCCC2)C1CCCCC1 (racemic) [Example 57, [rac]-2-[2-(4-Chloro-phenyl)-4,5,6,7-tetrahydro-2H-indazol-3-yl]-2-cyclohexyl-N[4-(1H-tetrazol-5-yl)-phenyl]-acetamide] | 7.35 |
| Fc1cc2nn(-c3ccc(Cl)cc3)c(C(OCc3ccc(-c4nnn[nH]4)cc3)C3CCCCC3)c2cc1F (racemic) [Example 49, [rac]-2-(4-Chloro-phenyl)-3-{cyclohexyl-[4-(2H-tetrazol-5-yl)-benzyloxy]-methyl}-5,6-difluoro-2H-indazole] | 8.40 |
| O=C(O)c1ccc(NC(=O)C(c2c3ccccc3nn2-c2ccc(Cl)cc2)C2CCCCC2)cc1 (centres unmarked) [Example 12, 4-{2-[2-(4-Chloro-phenyl)-2H-indazol-3-yl]-2-cyclohexyl-acetylamino}-benzoic acid] | 5.14 |
| O=C(O)c1ccc(NC(=O)C(c2c3c(nn2-c2ccc(Cl)cc2)CCCC3)C2CCCCC2)c(C(F)(F)F)c1 (racemic) [Example 20, [rac]-4-{2-[2-(4-Chloro-phenyl)-4,5,6,7-tetrahydro-2H-indazol-3-yl]-2-cyclohexyl-acetylamino}-3-trifluoromethyl-benzoic acid] | 6.48 |
| O=C(O)c1ccc(COC(c2c3ccccc3nn2-c2ccc(Cl)cc2)C2CCCCC2)cc1 (racemic) [Example 18] | 6.44 |
| O=C(Nc1ccc(F)cc1F)C(c1c2c(nn1-c1ccc(Cl)cc1)CCCC2)C1CCCCC1 (racemic) [Example 14, [rac]-2-[2-(4-Chloro-phenyl)-4,5,6,7-tetrahydro-2H-indazol-3-yl]-2-cyclohexyl-N-(2,4-difluoro-phenyl)-acetamide] | 5.55 |
| O=C(NC1CCCCC1)C(c1c2c(nn1-c1ccc(Cl)cc1)CCCC2)C1CCCCC1 (centres unmarked) [Example 6, 2-[2-(4-Chloro-phenyl)-4,5,6,7-tetrahydro-2H-indazol-3-yl]-2,N-dicyclohexyl-acetamide] | 6.81 |
| O=C(NC1CCCC1)C(c1c2c(nn1-c1ccc(Cl)cc1)CCCC2)C1CCCCC1 (centres unmarked) [Example 8, 2-[2-(4-Chloro-phenyl)-4,5,6,7-tetrahydro-2H-indazol-3-yl]-2-cyclohexyl-N-cyclopentyl-acetamide] | 5.97 |
| O=C(O)c1ccc(COC(c2c3cc(F)c(F)cc3nn2-c2ccc(Cl)cc2)C2CCCCC2)cc1 (racemic) [Example 27, [rac]-4-{[2-(4-Chloro-phenyl)-5,6-difluoro-2H-indazol-3-yl]-cyclohexyl-methoxymethyl}-benzoic acid] | 6.61 |
| O=C(NC1CCCCC1)C(c1c2cc(F)c(F)cc2nn1-c1ccc(Cl)cc1)C1CCCCC1 (racemic) [Example 24, [rac]-2-[2-(4-Chloro-phenyl)-5,6-difluoro-2H-indazol-3-yl]-2,N-dicyclohexyl-acetamide] | 6.17 |
| Cc1cc(C(=O)O)cc(C)c1OC(c1c2cc(F)c(F)cc2nn1-c1ccc(Cl)cc1)C1CCCCC1 (racemic) [Example 34, [rac]-4-{[2-(4-Chloro-phenyl)-5,6-difluoro-2H-indazol-3-yl]-cyclohexyl-methoxy}-3,5-dimethyl-benzoic acid] | 5.67 |
| O=C(NC1CCCCC1)C(c1c2ccccc2nn1-c1ccc(Cl)cc1)C1CCCCC1 (centres unmarked) [Example 4, 2-[2-(4-Chloro-phenyl)-2H-indazol-3-yl]-2,N-dicyclohexyl-acetamide] | 5.86 |
| O=C(O)C1(Oc2ccc(OCC(c3c4c(nn3-c3ccc(Cl)cc3)CCCC4)C3CCCCC3)cc2)CC1 (racemic) [Example 55, [rac]-1-(4-{2-[2-(4-Chloro-phenyl)-4,5,6,7-tetrahydro-2H-indazol-3-yl]-2-cyclohexyl-ethoxy}-phenoxy)-cyclopropanecarboxylic acid] | 7.38 |
| O=C(O)c1ccc(COC(c2c3c(nn2-c2ccc(Cl)cc2)CCCC3)C2CCCCC2)cc1 (racemic) [Example 28, [rac]-4-{[2-(4-Chloro-phenyl)-4,5,6,7-tetrahydro-2H-indazol-3-yl]-cyclohexyl-methoxymethyl}-benzoic acid] | 6.29 |
| Cc1cc(C(=O)O)cc(C)c1OCC(c1c2ccccc2nn1-c1ccc(Cl)cc1)C1CCCCC1 (racemic) [Example 29, [rac]-4-{2-[2-(4-Chloro-phenyl)-2H-indazol-3-yl]-2-cyclohexyl-ethoxy}-3,5-dimethyl-benzoic acid] | 7.59 |
| O=C(O)c1ccc(NC(=O)C(c2c3c(nn2-c2ccc(Cl)cc2)CCCC3)C2CCCCC2)c(F)c1 (centres unmarked) [Example 11, 4-{2-[2-(4-Chloro-phenyl)-4,5,6,7-tetrahydro-2H-indazol-3-yl]-2-cyclohexyl-acetylamino}-3-fluoro-benzoic acid] | 5.89 |
| O=C(Nc1ccc(OC2(C(=O)O)CC2)cc1F)C(c1c2c(nn1-c1ccc(Cl)cc1)CCCC2)C1CCCCC1 (racemic) [Example 16, [rac]-1-(4-{2-[2-(4-Chloro-phenyl)-4,5,6,7-tetrahydro-2H-indazol-3-yl]-2-cyclohexyl-acetylamino}-3-fluoro-phenoxy)-cyclopropanecarboxylic acid] | 6.65 |
| O=C(Nc1ccc(OC2(C(=O)O)CC2)cc1F)[C@H](c1c2c(nn1-c1ccc(Cl)cc1)CCCC2)C1CCCCC1 [Example 23, (−)-1-(4-{2-[2-(4-Chloro-phenyl)-4,5,6,7-tetrahydro-2H-indazol-3-yl]-2-cyclohexyl-acetylamino}-3-fluoro-phenoxy)-cyclopropanecarboxylic acid] | 7.68 |
| O=C(Nc1ccc(OC2(C(=O)O)CC2)cc1F)C(c1c2c(nn1-c1ccc(Cl)cc1)CCCC2)C1CCCCC1 (single isomer, unassigned; (+)) [Example 22, (+)-1-(4-{2-[2-(4-Chloro-phenyl)-4,5,6,7-tetrahydro-2H-indazol-3-yl]-2-cyclohexyl-acetylamino}-3-fluoro-phenoxy)-cyclopropanecarboxylic acid] | 5.69 |
| N#Cc1ccc(COC(c2c3cc(F)c(F)cc3nn2-c2ccc(Cl)cc2)C2CCCCC2)c(F)c1 (racemic) [Example 41, [rac]-4-{[2-(4-Chloro-phenyl)-5,6-difluoro-2H-indazol-3-yl]-cyclohexyl-methoxymethyl}-3-fluoro-benzonitrile] | 5.15 |
| Fc1cc2nn(-c3ccc(Cl)cc3)c(C(Oc3ccc(-c4nnn[nH]4)cc3F)C3CCCCC3)c2cc1F (racemic) [Example 50, [rac]-2-(4-Chloro-phenyl)-3-{cyclohexyl-[2-fluoro-4-(1H-tetrazol-5-yl)-phenoxy]-methyl}-5,6-difluoro-2H-indazole] | 7.24 |
| O=C(O)C1(Oc2ccc(OC(c3c4cc(F)c(F)cc4nn3-c3ccc(Cl)cc3)C3CCCCC3)cc2)CC1 (racemic) [Example 56, [rac]-1-(4-{[2-(4-Chloro-phenyl)-5,6-difluoro-2H-indazol-3-yl]-cyclohexyl-methoxy}-phenoxy)-cyclopropanecarboxylic acid] | 6.77 |
| Cc1cc(C(=O)O)cc(C)c1OCC(c1c2c(nn1-c1ccc(Cl)cc1)CCCC2)C1CCCCC1 (racemic) [Example 40, [rac]-4-{2-[2-(4-Chloro-phenyl)-4,5,6,7-tetrahydro-2H-indazol-3-yl]-2-cyclohexyl-ethoxy}-3,5-dimethyl-benzoic acid] | 6.44 |
| N#Cc1ccc(COC(c2c3c(nn2-c2ccc(Cl)cc2)CCCC3)C2CCCCC2)cc1 (racemic) [Example 44, [rac]-4-{[2-(4-Chloro-phenyl)-4,5,6,7-tetrahydro-2H-indazol-3-yl]-cyclohexyl-methoxymethyl}-benzonitrile] | 5.25 |
| Cc1cc(-c2nnn[nH]2)cc(C)c1OCC(c1c2ccccc2nn1-c1ccc(Cl)cc1)C1CCCCC1 (racemic) [Example 52, [rac]-2-(4-Chloro-phenyl)-3-{1-cyclohexyl-2-[2,6-dimethyl-4-(2H-tetrazol-5-yl)-phenoxy]-ethyl}-2H-indazole] | 8.40 |

Reference: patent publication US8008505B2, “Indazole or 4,5,6,7-tetrahydro-indazole derivatives” (Hoffmann-La Roche Inc., priority 2008, dated 2011)
